Consider 25 compounds from ChEMBL document CHEMBL2384949, “Nitroimidazolyl hydrazones are better amoebicides than their cyclized 1,3,4-oxadiazoline analogues: In vitro studies and Lipophilic efficiency analysis” (Eur J Med Chem, 2013).

In series [1] the test system is Entamoeba histolytica. Briefly: Antiamoebic activity against Entamoeba histolytica HM-1:IMSS trophozoites after 72 hrs by microdilution method. Type of series: functional, organism-based.
Series [2] in a line: Cytotoxicity against human HepG2 cells assessed as cell viability up to 25 uM after 48 hrs by MTT assay. In kind it is cell-based. Particulars: read-out: Activity. In general terms: Tetrazolium dyes change colour on reduction, which living cells bring about.
Series [3] deals with HepG2. Briefly: Cytotoxicity against human HepG2 cells after 48 hrs by MTT assay. In kind it is cell-based. Particulars: for IC50: Homo sapiens, HepG2, 48 h; for Activity: human, hepg2, 48 h.
The nature of series [4]: Cytotoxicity against human HepG2 cells assessed as cell viability at 3.13 uM after 48 hrs by MTT assay. In kind it is cell-based. Particulars: read-out: Activity.
The nature of series [5]: Safety index, ratio of IC50 for human HepG2 cells to IC50 for Entamoeba histolytica HM-1:IMSS trophozoites.
The test system of series [6] is HepG2. Put plainly: Cytotoxicity against human HepG2 cells assessed as cell viability at 50 to 100 uM after 48 hrs by MTT assay. Type of series: cell-based. Particulars: hepg2, 48 h.
Series [7] in a line: Cytotoxicity against human HepG2 cells assessed as cell viability at 100 uM after 48 hrs by MTT assay. In kind it is cell-based. Particulars: read-out: Activity.

Molecules are shown by their SMILES.

Turning to `Cc1ncc([N+](=O)[O-])n1CC(=O)N/N=C/c1ccc(C(C)C)cc1`, the IC50 in series [1] (read-out: IC50) and in series [1] (read-out: pIC50 (converted)) was 3.68 µM each time.
Consider `COc1ccc(/C=N/NC(=O)Cn2c([N+](=O)[O-])cnc2C)cc1`, for which, in series [2], the viability at 48 h is ≥ 88%. Moreover, the IC50 is > 100 µM in series [3], 0.81 µM in series [1] (read-out: IC50) and 0.811 µM in series [1] (read-out: pIC50 (converted)). Moreover, the Activity result is “Dose-dependent effect” in series [3] and “Non-toxic” in series [6]. For the same compound, the viability at 48 h, 3.13 µM in series [4] worked out at 98%. Further, the selectivity ratio in series [5] (HepG2 cells) was > 123. Further, the viability at 48 h, 100 µM in series [7] was ≥ 68%.
With `Cc1ccc(/C=N/NC(=O)Cn2c([N+](=O)[O-])cnc2C)cc1`, the viability at 48 h in series [2] was ≥ 88%. The IC50 is > 100 µM in series [3], 0.96 µM in series [1] (read-out: IC50) and 0.962 µM in series [1] (read-out: pIC50 (converted)). In addition, the Activity result in series [3] is “Dose-dependent effect”; in series [6], “Non-toxic”. For the same compound, in series [4], the viability at 48 h, 3.13 µM worked out at 98%. Moreover, the selectivity ratio in series [5] (HepG2 cells) was > 104. The viability at 48 h, 100 µM in series [7] was ≥ 68%.
For `Cc1ncc([N+](=O)[O-])n1CC(=O)N/N=C/c1cccc(Cl)c1`, the values for the IC50 in series [1] (read-out: IC50) and in series [1] (read-out: pIC50 (converted)) were 3.82 µM and 3.83 µM, respectively.
For `Cc1ncc([N+](=O)[O-])n1CC(=O)N/N=C/c1ccccc1Cl`, the IC50 in series [1] (read-out: IC50) and in series [1] (read-out: pIC50 (converted)) was 3.86 µM throughout.
For `Cc1ncc([N+](=O)[O-])n1CC(=O)N/N=C/c1ccc(Cl)cc1`, the IC50 was 3.64 µM in series [1] (read-out: IC50) and 3.65 µM in series [1] (read-out: pIC50 (converted)).
For `COc1cc(C2OC(Cn3c([N+](=O)[O-])cnc3C)=NN2C(C)=O)cc(OC)c1OC` (stereo not drawn) the same measures were 5.82 µM and 5.82 µM.
For the compound `CCc1ccc(/C=N/NC(=O)Cn2c([N+](=O)[O-])cnc2C)cc1`, in series [2], the viability at 48 h was ≥ 88%. Further, the IC50 in series [3] was > 100 µM; in series [1] (read-out: IC50), 1.32 µM; in series [1] (read-out: pIC50 (converted)) it was 1.32 µM. Besides, the figures for the Activity entry in series [3] and in series [6] were “Dose-dependent effect” and “Non-toxic”, respectively. Moreover, the viability at 48 h, 3.13 µM in series [4] amounted to 98%. Further, in series [5] (HepG2 cells), the selectivity ratio was > 75.8. The viability at 48 h, 100 µM in series [7] is ≥ 68%.
As to `Cc1ccc(C)c(/C=N/NC(=O)Cn2c([N+](=O)[O-])cnc2C)c1`, the IC50 in series [1] (read-out: IC50) and in series [1] (read-out: pIC50 (converted)) was 2.58 µM throughout.
For the compound `CCOc1ccc(/C=N/NC(=O)Cn2c([N+](=O)[O-])cnc2C)cc1`, the viability at 48 h in series [2] is ≥ 88%. Moreover, the IC50 in series [3] is > 100 µM; in series [1] (read-out: IC50), 1.65 µM; in series [1] (read-out: pIC50 (converted)), 1.65 µM. In addition, the Activity entry is recorded as “Dose-dependent effect” in series [3] and “Non-toxic” in series [6]. Also, the viability at 48 h, 3.13 µM in series [4] was 98%. In series [5] (HepG2 cells), the selectivity ratio is > 60.6. The viability at 48 h, 100 µM in series [7] is ≥ 68%.
With `COc1ccc(OC)c(/C=N/NC(=O)Cn2c([N+](=O)[O-])cnc2C)c1`, the IC50 in series [1] (read-out: IC50) and in series [1] (read-out: pIC50 (converted)) was 2.64 µM throughout.
On to `COc1cc(/C=N/NC(=O)Cn2c([N+](=O)[O-])cnc2C)cc(OC)c1OC`, for which the IC50 in series [1] (read-out: IC50) and in series [1] (read-out: pIC50 (converted)) was 4.12 µM throughout.
As to `CC(=O)N1N=C(Cn2c([N+](=O)[O-])cnc2C)OC1c1ccccc1` (stereo not drawn), the figures for the IC50 in series [1] (read-out: IC50) and in series [1] (read-out: pIC50 (converted)) were 9.82 µM and 9.84 µM, respectively.
For `CC(=O)N1N=C(Cn2c([N+](=O)[O-])cnc2C)OC1c1ccccc1Cl` (stereo not drawn) the same measures were 6.84 µM and 6.85 µM.
For `CC(=O)N1N=C(Cn2c([N+](=O)[O-])cnc2C)OC1c1cccc(Cl)c1` (stereo not drawn), the IC50 in series [1] (read-out: IC50) and in series [1] (read-out: pIC50 (converted)) was 6.32 µM in each case.
Consider `CC(=O)N1N=C(Cn2c([N+](=O)[O-])cnc2C)OC1c1ccc(Cl)cc1` (stereo not drawn), for which the IC50 was 5.4 µM in series [1] (read-out: IC50) and 5.41 µM in series [1] (read-out: pIC50 (converted)).
For the compound `CC(=O)N1N=C(Cn2c([N+](=O)[O-])cnc2C)OC1c1ccc(C)cc1` (stereo not drawn), the IC50 in series [1] (read-out: IC50) and in series [1] (read-out: pIC50 (converted)) was 2.48 µM each time.
On to `CCc1ccc(C2OC(Cn3c([N+](=O)[O-])cnc3C)=NN2C(C)=O)cc1` (stereo not drawn), for which the IC50 in series [1] (read-out: IC50) and in series [1] (read-out: pIC50 (converted)) was 2.62 µM each time.
Regarding `CC(=O)N1N=C(Cn2c([N+](=O)[O-])cnc2C)OC1c1cc(C)ccc1C` (stereo not drawn), the IC50 in series [1] (read-out: IC50) is 4.38 µM; in series [1] (read-out: pIC50 (converted)), 4.39 µM.
As to `CC(=O)N1N=C(Cn2c([N+](=O)[O-])cnc2C)OC1c1ccc(C(C)C)cc1` (stereo not drawn), the values for the IC50 in series [1] (read-out: IC50) and in series [1] (read-out: pIC50 (converted)) were 4.88 µM and 4.89 µM, respectively.
For `COc1ccc(C2OC(Cn3c([N+](=O)[O-])cnc3C)=NN2C(C)=O)cc1` (stereo not drawn) the same measures were 2.18 µM and 2.18 µM.
Consider `CCOc1ccc(C2OC(Cn3c([N+](=O)[O-])cnc3C)=NN2C(C)=O)cc1` (stereo not drawn), for which the IC50 in series [1] (read-out: IC50) and in series [1] (read-out: pIC50 (converted)) was 2.32 µM throughout.
On to `COc1ccc(OC)c(C2OC(Cn3c([N+](=O)[O-])cnc3C)=NN2C(C)=O)c1` (stereo not drawn), for which the IC50 in series [1] (read-out: IC50) and in series [1] (read-out: pIC50 (converted)) was 4.62 µM each time.
With `Cc1ncc([N+](=O)[O-])n1CC(=O)N/N=C/c1ccccc1`, the IC50 in series [1] (read-out: IC50) is 4.28 µM; in series [1] (read-out: pIC50 (converted)), 4.29 µM.
In the case of `Cc1ncc([N+](=O)[O-])n1CCO` [METRONIDAZOLE], the viability at 48 h in series [2] is ≥ 88%. For the same compound, in series [3], the IC50 is > 100 µM and the Activity entry was “Dose-dependent effect”. Further, in series [4], the viability at 48 h, 3.13 µM came to 98%. Besides, in series [5] (hepg2), the selectivity ratio is > 55.5. In series [6], the Activity result is given as “Non-toxic”. For the same compound, in series [7], the viability at 48 h, 100 µM was ≥ 68%.
